Five molecules from paper PMC9616048, “Thermal proteome profiling reveals Haemonchus orphan protein HCO_011565 as a target of the nematocidal small molecule UMW-868” (Frontiers in Pharmacology, 2022) can be followed below.

Data set [1] deals with H. contortus xL3s. The data set is described as follows: Dose-response evaluation, xL3 motility. It counts as cell-based. Conditions: Haemonchus contortus, 168 h, analog series; read-out: xL3 motility reduction (IC50 in µM). As for the experimental part: (§1) These evaluations were carried out to estimate the half-maximal inhibitory concentrations (IC50 values) for hit compounds against H. contortus xL3s. With reference to the two positive-control compounds (monepantel and moxidectin), IC50 values for compounds were estimated ([Preston et al., 2015]; [Taki et al., 2021a]) using two-fold serial dilution (in LB*; 9 points from 50 μM to 0.2 µM) in 96-well plates (cat. no. 3596; Corning) with larvae at a density of 300 H. contortus xL3s in 100 µl per well. Plates containing H. contortus xL3s were incubated at 38°C, 10% (v/v) CO2 and >90% relative humidity.
(§2) Compound concentrations were log10-transformed and fitted using a variable slope four-parameter equation, constraining the highest value to 100% employing a least squares (ordinary) fit model using GraphPad Prism software (v.9.1.2). Compounds were tested by three independent experiments in triplicate. A one-way analysis of variance (ANOVA) with a Tukey’s multiple comparison test or an unpaired t-test was used to establish statistically significant differences in larval motility or development.

A further data set has as its system eggs of H. contortus. The data set is described as follows: Egg hatch assay. Type of data set: cell-based. Conditions: Haemonchus contortus, 48 h; read-out: Egg hatch inhibition (IC50 in µM). As for the experimental part:
Compounds were also assessed for their effect on the hatching of eggs of H. contortus in vitro. To do this, eggs were isolated from the faeces from sheep with patent (30 day-) H. contortus infection by sucrose flotation ([Mes et al., 2007]). Eggs were suspended in H2O at a concentration of one egg per µl. The eggs were dispensed into wells (in triplicate; 100 eggs per well) and incubated with two-fold serial dilutions (9 points from 50 μM to 0.2 µM in H2O) of individual test or control compounds for 48 h at 27°C and >90% relative humidity; wells with no compound were also included. The numbers (percentages) of eggs from which first-stage larvae (L1s) hatched were counted using a light microscope (M80, Leica) at a 40-times magnification. With reference to positive-control compounds (i.e., monepantel and moxidectin), IC50 values of compounds were calculated.

Data set [2] can be described thus: Cellular toxicity in HepG2 cells (crystal violet). Conditions: human, HepG2 human hepatoma cells; HepG2, 48 h; read-out: Cytotoxicity (48 h) CC50. Type of data set: cell-based, human. As for the experimental part:
(§3) The toxicities of compounds on cell and mitochondria were assessed to estimate their half-maximal cytotoxic concentrations (CC50) and half-maximal mitotoxic concentrations (MC50), respectively. HepG2 human hepatoma cells were seeded into wells of a 96-well plate at a density of 5.5 × 10^4 cells per well in 80 µl of Dulbecco’s modified eagle medium (DMEM; with GlutaMax™ cat. no. 10566016 or 4 mM L-glutamine cat. no. 11966025; Thermo Fisher Scientific), supplemented with 25 mM D-glucose (cytotoxicity) or D-galactose (mitotoxicity), 10% (v/v) inactivated foetal bovine serum (iFBS), 100 IU/ml of penicillin, 100 μg/ml of streptomycin and 0.25 μg/ml of amphotericin B (designated DMEM*). Cells were allowed to adhere for 16 h at 37°C and 5% (v/v) CO2 at > 90% relative humidity, then, incubated for 48 h with individual, serially-diluted compounds (two-fold serial dilution in DMEM*; […]) in a final volume of 100 µl. For the assessment of toxicity on mitochondria, cells were starved of serum (DMEM* without iFBS) for 4 h prior to the 48 h-incubation with compounds ([Swiss and Will, 2011]; [Kamalian et al., 2015]). Two positive control compounds, doxorubicin (cytotoxic control) and M-666 (mitotoxic control) were each added to three individual wells in each 96-well plate at a single concentration of 10 µM. DMEM* + 0.25% (v/v) DMSO was added to 12 wells in each plate as negative controls. Monepantel and moxidectin were also serially diluted — prepared in the same manner as test compounds — and used as (“non-toxic”) reference compounds. After 48 h of incubation, cell viability was determined by the crystal violet staining method ([Śliwka et al., 2016]). The absorbance (595 nm) of treated cells was normalised with reference to the negative control (100% viability). To determine the CC50 and MC50 values, compound concentrations were log10-transformed, baseline-corrected using a respective positive control (doxorubicin or M-666) and fitted using a variable slope four-parameter equation with a least squares (ordinary) fit model using GraphPad Prism software (v.9.1.2). Compounds and controls were tested in triplicate.

Data set [3] relates to mitochondria of HepG2 human hepatoma cells. The data set is described as follows: Mitochondrial toxicity in HepG2 cells (galactose medium). Type of data set: cell-based. Conditions: HepG2, 48 h. As to the method: as §3
Data set [4] has as its system H. contortus fourth-stage larvae (L4s) development. The data set is described as follows: Dose-response evaluation, L4 development. Conditions: Haemonchus contortus; 168 h, analog series; read-out: L4 development inhibition (IC50 in µM). Type of data set: cell-based, Haemonchus contortus. As for the experimental part: as §1
as §2, with “The motility of H. contortus xL3s and L4 development were measured following 168 h of incubation with compound ([Taki et al., 2021a]). Compound concentrations” for “Compound concentrations”

Data set [5] deals with H. contortus xL3s. The data set is described as follows: Cell lethality in xL3s (Sytox Green staining). Type of data set: cell-based, Haemonchus contortus. As for the experimental part: Fluorescence staining was employed to assess the ability of UMW-868 to reduce the viability of H. contortus. The xL3s were dispensed in 96-well plates at a density of 300 xL3 per well, and incubated with compounds UMW-868 or A-3155, non-active analogs of UMW-868, at 50 μM at 38°C, 10% (v/v) CO2 and >90% relative humidity. After 90 h of incubation, H. contortus xL3s were stained with Sytox Green nucleic acid stain (Thermo Fisher Scientific) at the final concentration of 1 µM in LB* in the same 96-well plates and incubated for 1 h at 38°C and 10% (v/v) CO2 with >90% relative humidity. Following the incubation, the viability of larvae was evaluated by measuring the relative fluorescent units (RFU) of xL3s using an Omega FLUOstar microplate reader (BMG Labtech), with excitation and emission wavelengths set at 485 nm and 520 nm, respectively. The 96-well plates containing the stained larvae were returned to the incubator for further 78 h; after a total of 168 h of compound exposure, the stained larvae were examined under an inverted fluorescence microscope (DM IL, Leica) equipped with a green fluorescent protein filter (470/500/525 […]; Leica), and imaged using Leica Application Suite software (Leica).

Entries after “also recorded” stand apart in the source; their conditions may differ.

On to `FC(F)Oc1ccc(-c2nc(-c3ccc(C(F)(F)F)cc3)no2)cc1` [Compound A-6325, 5-(4-(Difluoromethoxy)phenyl)-3-(4-(trifluoromethyl)phenyl)-1,2,4-oxadiazole], for which the IC50 was 1.4 µM in the data set with H. contortus xL3s [1], above 50 µM in the data set on eggs of H. contortus and 3.1 µM in data set [4]. Further, the CC50 at 48 h in data set [2] was above 50 µM. In addition, the “Mitotoxicity (48 h) MC50” value in data set [3] worked out at 36.3 µM.

In the case of `NC(=O)c1ccc(-c2nc(-c3cccs3)no2)cc1` [Compound A-3155], the “lethality / viability of xL3s (in words)” value in the data set on H. contortus xL3s [5] (90 h) is recorded as “remained viable; also recorded: non-lethal”. For the same molecule, the “dead cells detected microscopically in xL3s (Sytox Green)” value in the data set with H. contortus xL3s [5] (168 h of exposure) is given as “no dead cells were detected”.

With `CCCc1ccc(-c2nc(-c3ccccc3)no2)cc1` [Compound A-3126], the results for the IC50 (in the data set on H. contortus xL3s [1]; with eggs of H. contortus; in data set [4]) were 12.1 µM, 13.1 µM and 50 µM, respectively. Besides, in data set [2], the CC50 at 48 h is above 50 µM. The “Mitotoxicity (48 h) MC50” value in data set [3] was above 50.0 µM.

As to `CCOc1ccc(-c2nc(-c3cccs3)no2)cc1` [Compound A-3134], the results for the IC50 (in the data set with H. contortus xL3s [1]; in the data set on eggs of H. contortus; in data set [4]) were 7.8 µM, above 50 µM and above 50 µM, respectively. The CC50 at 48 h in data set [2] is above 50 µM. Moreover, the “Mitotoxicity (48 h) MC50” value in data set [3] was above 50.0 µM.

As for `FC(F)Oc1ccc(-c2nc(-c3cccs3)no2)cc1` [Compound A-4340, 5-(4-(Difluoromethoxy)phenyl)-3-(thiophen-2-yl)-1,2,4-oxadiazole], the values for the IC50 (in the data set on H. contortus xL3s [1]; in the data set with eggs of H. contortus; in data set [4]) were 4 µM, above 50 µM and 25 µM, respectively. For the same molecule, the CC50 at 48 h in data set [2] was above 50 µM. In addition, in data set [3], the “Mitotoxicity (48 h) MC50” value is above 50.0 µM.

As a reminder, the IC50 is the concentration needed to halve the response being measured. For orientation: CC50 means the concentration at which the toxic effect on the cells reaches its halfway point.
